The values below come from patent US20230043678A1, “USE OF 5-METHYLTETRAHYDROFOLATE” (priority 2019, published 2023).

Read-outs that look alike come from different tables or passages of the source.

The subject of data set [1] is fetal rat heart. As to the kind of experiment: Effects of homocysteine on fetal rats, heart slices (Example 7). It is filed as in vivo, SD rats. On the procedure: In order to investigate an effect of homocysteine on the fetal heart, SD rats were selected, male and female rats were mated in a cage at a ratio of 1:1 overnight, a vaginal plug was checked the next morning, a day when the vaginal plug was found was regarded as day 0 of pregnancy, and pregnant mice were fed alone. A 1% homocysteine (HCY) solution was used, an injection volume was calculated according to an injection volume of 1 ml/100 g, a dose was (100 mg/kg/d), on the seventh day of pregnancy, the pregnant mice were intraperitoneally injected once a day until the 17th day of pregnancy and injected once on the 19th day of pregnancy, no fluid was withdrawn during each injection, the pregnant mice were subjected to chloral hydrate anesthesia on the 20th day of pregnancy, and a fetus was obtained by cesarean section. High-dose HCY model pregnant mice were investigated by the same method as above, the dose was 200 mg/kg/d and the other conditions were the same. Fetal rats were dissected, the heart was taken and sliced for observation, and the results were as follows.

For data set [2], the system named is zebrafish embryos. The method, then:
Each experiment was conducted in triplicate. Zebrafish embryos were administrated at 2 h post fertilization (2 hpf) and termination was conducted at 72 hpf. The number of deaths in each group was recorded at 8, 24, 48 and 72 hpf. No food was fed during a dosing period, and the dead embryos were cleaned up in time.

Data set [3] has as its system transcription factors (Nkx2.5, amhc, vmhc, hand2, has2, mef2a, mef2c, bmp2b, ephrinB2, ephB4) in zebrafish embryos. The experiment in a line: qRT-PCR expression of transcription factors during development of zebrafish embryos (Example 4). Type of data set: in vivo. Particulars: 8 mM L-5-MTHF-Ca, 24 and 48 hpf. On the procedure:
In order to explore an effect of folic acid on epigenetics during development of the zebrafish embryos, the zebrafish embryos at different developmental stages were collected for testing. […] A fluorescent dye SYBR Green was used in the qRT-PCR experiment. The qRT-PCR was conducted according to the instructions of an SYBR Green qPCR Master Mix kit and a detection was conducted on an ABI (HT 7900) PCR instrument. […] An expression of β-actin was used as an internal reference and relative expression levels of other genes were calculated by a ΔΔCt method.

Data set [4] deals with zebrafish embryos. Particulars: 30 mM HCHO + 10 mM L-5-MTHF-Ca.
Data set [5] has as its system heart of fetal mice. The experiment in a line: Effects of folic acid and 5-methyltetrahydrofolate on heart development of fetal/neonatal mice, histology (Example 10). On the procedure:
75 7-week-old female C57BL/6J mice and 25 8-week-old male C57BL/6J mice were provided by Shanghai Lingchang Biotechnology Co., Ltd. with a certificate number of SCXK (Shanghai) 2018-0003. […] The female mice were randomly divided into 5 groups according to body weight: a solvent control group, a folic acid (151.66 μg/kg) group, a folic acid (303.32 μg/kg) group, a calcium 5-methyltetrahydrofolate (converted to folic acid, 151.66 μg/kg) group and a calcium 5-methyl tetrahydrofolate (converted to folic acid, 303.32 μg/kg) group. 1.1275 unit mass of the calcium 5-methyltetrahydrofolate equaled to 1 unit mass of the folic acid.
15 mice were in each group and numbered by a toe clipping method. The mice were intragastrically administrated once a day on the second day after grouping. One week after the pre-administration, male and female mice were caged at a ratio of […], a vaginal plug was observed every day from the next day, and a day when the vaginal plug was seen was recorded as day 0.5 of pregnancy. After 14 days of caging, the female mice stopped the administration, the male mice were removed, and the pregnant female mice were fed alone until litter.
After the detection, thoracic and abdominal cavities of the mice were dissected, cardiac morphology and beating were observed under a stereoscopic microscope (SMZ168, Motic, Xiamen, Fujian, China), and photographs and video recordings were taken (Motic Image Plus 3.0, Motic, Xiamen, Fujian, China). The mice were sacrificed and the hearts, the livers, the kidneys and the lungs were harvested. The hearts and the livers of the neonatal mice were selected from each group and fixed with 4% paraformaldehyde, the fixed hearts and livers were embedded in paraffin, the embedded hearts and livers were sliced and the slices were stained with H&E. A half of the other tissues were immersed in RNA later for fixation and the other half were directly immersed in liquid nitrogen and frozen for a subsequent experiment.
1-day-old neonatal mice were sacrificed, the hearts were taken and fixed with 4% paraformaldehyde, the fixed hearts were embedded in paraffin, the embedded hearts were sliced, the slices were stained with H&E and pictures were taken under a normal microscope.

Data set [6] relates to zebrafish embryos. Conditions: in vivo. The method, then: A table was listed below for details.
5-Selected concentrations of methyltetrahydrofolate in the experiment were recorded in the table.

Data set [7] deals with zebrafish embryos. This is another data set of the same source.
Experimental: (§1) Transgenic zebrafish (fli-1:EGFP) were from the Model Animal Research Center of Nanjing University. Adult zebrafish aged less than 1 were used for experiment and fed at a water pH value of 7±0.2, a temperature around 28° C. and a ratio of illumination to darkness of 14 h:10 h, and with Artemia salina eggs twice a day. Three zebrafish, one female, two males, were placed in a spawning box the night before and eggs were collected the next morning. Fish eggs were placed in an embryo culture medium (prepared with 0.2 g/L of sea salt) and cultured at 28° C. […] Dead embryos were cleaned up in time. A phenotype of malformation was observed, the number of all abnormal zebrafish where the malformation was present was recorded and a malformation rate and a rescue rate of each group were calculated. Morphological defects, a heart rate, cardiac morphology and other indicators were observed and evaluated by an SMZ745T inverted stereomicroscope.
Data set [8] has as its system zebrafish embryos. Conditions: 6 mM FA + 10 mM L-5-MTHF-Ca.
Experimental: Transgenic zebrafish (fli-1:EGFP) were from the Model Animal Research Center of Nanjing University. Adult zebrafish aged less than 1 were used for experiment and fed at a water pH value of 7±0.2, a temperature around 28° C. and a ratio of illumination to darkness of 14 h:10 h, and with Artemia salina eggs twice a day. Three zebrafish, one female, two males, were placed in a spawning box the night before and eggs were collected the next morning. Fish eggs were placed in an embryo culture medium (prepared with 0.2 g/L of sea salt) and cultured at 28° C. […] Dead embryos were cleaned up in time. Each experiment was conducted in triplicate. […] A phenotype of malformation was observed, the number of all abnormal zebrafish where the malformation was present was recorded and a malformation rate and a rescue rate of each group were calculated. Morphological defects, a heart rate, cardiac morphology and other indicators were observed and evaluated by an SMZ745T inverted stereomicroscope.
For data set [9], the system named is zebrafish embryos. This is another data set of the same source.
Experimental: Transgenic zebrafish (fli-1:EGFP) were from the Model Animal Research Center of Nanjing University. Adult zebrafish aged less than 1 year were used for experiment and fed at a water pH value of 7±0.2, a temperature around 28° C. and a ratio of illumination to darkness of 14 h:10 h, and with Artemia salina eggs twice a day. Three zebrafish, one female, two males, were placed in a spawning box the night before and eggs were collected the next morning. Fish eggs were placed in an embryo culture medium (prepared with 0.2 g/L of sea salt) and cultured at 28° C.
Zebrafish embryos were cultured in 24-well plates with 10 embryos per well at 2 hpf in a dosing manner, drug solutions of the above concentrations in the table were separately added, termination was conducted at 8 hpf, and the embryos were washed and transferred to an egg solution for continuous culture to 72 hpf. Dead embryos were cleaned up in time. Each experiment was conducted in triplicate.
A phenotype of malformation was observed, the number of all abnormal zebrafish where the malformation was present was recorded and a malformation rate and a rescue rate of each group were calculated. Morphological defects, a heart rate, cardiac morphology and other indicators were observed and evaluated by an SMZ745T inverted stereomicroscope.
Data set [10] relates to zebrafish embryos. The experiment in a line: Teratogenic effect of folic acid on zebrafish embryos (Example 3).
Experimental: as §1
Where [11] appears, read: Group D: calcium 5-methyltetrahydrofolate (converted to folic acid, 151.66 μg/kg) intragastric.
The mark [12] stands for this setting: Group E: calcium 5-methyltetrahydrofolate (converted to folic acid, 303.32 μg/kg) intragastric.

Consider `N[C@@H](CCS)C(=O)O` [HCY, homocysteine], for which the “fetal rat heart histology” value in data set [1] (high-dose HCY 200 mg/kg/d intraperitoneal to pregnant rats) is “led to red staining of muscle cytoplasm of the fetal rats”; in [1] (low-dose HCY 100 mg/kg/d intraperitoneal to pregnant rats), “led to widening of myocardial trabeculae in fetal rats and atria was filled with red blood cells”.

Turning to “Calcium 5-Methyltetrahydrofolate [L-5-MTHF-Ca]”, the embryo survival rate entry in [2] (10 mM L-5-MTHF-Ca, dosed 2 hpf to 72 hpf) is reported as “did not affect an embryo survival rate”. Moreover, the “heart rate of zebrafish embryos” value in data set [2] (10 mM, 48 hpf, vs control group) is “no difference in the heart rate”. Moreover, the “heart shape and lower intestinal network blood vessels” value is “the heart in each group had a normal shape and the lower intestinal network blood vessels developed normally” in [2] (10 mM, 72 hpf); “normal heart shape and normal development of lower intestinal network blood vessels” in [4] (72 hpf); “normal heart shape and normal development of lower intestinal network blood vessels” in data set [10] (10 mM L-5-MTHF-Ca, 72 hpf). Besides, in data set [2] (10 mM, 72 hpf, vs control group), the “body length of zebrafish embryos” value is “no difference”. For the same molecule, the “expressions of the various genes vs normal control” value in [3] was “did not affect the expressions of the various genes”. Moreover, the “pericardium edema and heart rate (48 hpf), body length (72 hpf)” value in data set [4] was “had no effect on the pericardium edema, the heart rate and the body length of the zebrafish”. For the same molecule, the “survival rate of embryos, rescue” value in [4] was “can rescue an effect of the 30 mM HCHO on a survival rate of the embryos”; in [6], “did not rescue an effect of the 2 and 4 mM Pb(NO3)2 on a survival rate of the embryos”; in data set [7] (1.5 mM MTX + 10 mM L-5-MTHF-Ca), “no significant difference from that of a control group”; in data set [8], “can rescue an effect of the 6 mM FA on a survival rate of the embryos”. For the same molecule, the embryo development entry in data set [4] (8 hpf) and in [8] (8 hpf) was “delayed development of the zebrafish embryos” in each case. The “congenital heart disease in fetal mice” value in data set [5] (5-methyltetrahydrofolate group) is recorded as “no congenital heart disease is found”. In addition, the Development delay in [5] (setting [11]) and in [5] (setting [12]) was 0 each time. In addition, the Malformation cases in data set [5] (setting [11]) and in data set [5] (setting [12]) was 0 in each case. For the same molecule, the Sparse myocardial trabeculae in data set [5] (setting [11]) and in [5] (setting [12]) was 0 throughout. For the same molecule, the Ventricular defects/septal defects in data set [5] (setting [11]) and in data set [5] (setting [12]) was 0 throughout. In data set [5] (low-dose and high-dose methyltetrahydrofolate groups), the “heart slices (H&E) of 1-day-old neonatal mice” value is recorded as “had intact myocardium”. In addition, in data set [6], the “10 s heart rate (48 hpf), body length and malformation (72 hpf), rescue” value is “could rescue malformed phenotypes of the bradycardia, the shortened body length and abnormally curved bodies”. Moreover, the “rescue of embryonic development malformations” value in data set [6] was “could rescue embryonic development malformations induced by 2 and 4 mM Pb(NO3)2”; in data set [7] (1.5 mM MTX + 10 mM L-5-MTHF-Ca) it was “could rescue embryonic development malformations induced by 1.5 mM MTX”. Besides, the embryo phenotype result is “did not lead to obvious embryonic development delay, malformation and death” in [6] (zebrafish); “alleviated the malformation” in data set [8] (24 hpf); “led to pericardium edema, dyspigmentation, and intersegmental vascular hypoplasia of zebrafish” in data set [8] (48 hpf); “led to developmental disorders of lower intestinal network blood vessels of the zebrafish” in data set [8] (72 hpf). Moreover, the “pericardium edema and 10 s heart rate (48 hpf), body length (72 hpf), rescue” value in [6] (zebrafish) was “could rescue malformed phenotypes of the pericardium edema, the bradycardia and the shortened body length of the zebrafish to a certain extent”; in data set [7] (1.5 mM MTX + 10 mM L-5-MTHF-Ca), “could rescue malformed phenotypes of the pericardium edema, the bradycardia and the shortened body length”. In [7] (1.5 mM MTX after adding L-5-MTHF-Ca (10 mM)), this molecule came in with a Malformation rate of 10%. Further, the “10 s heart rate (48 hpf) and body length (72 hpf), rescue” value in data set [8] is “could rescue malformed phenotypes of the bradycardia and the shortened body length”. The “pericardium edema, rescue” value in data set [8] (48 hpf) is on record as “could not rescue the pericardium edema”; in data set [9] ([…] EtOH + 10 mM L-5-MTHF-Ca, 48 hpf) it was “had no effect on relieving pericardium edema”. Further, in data set [9] (0.6% EtOH + 10 mM L-5-MTHF-Ca, 48 hpf), the “rate of pericardium edema, rescue” value was “could reduce a rate of pericardium edema”. For the same molecule, the “heart rate, rescue” value in data set [9] (0.9% and […] EtOH + 10 mM L-5-MTHF-Ca, 48 hpf) was “could relieve bradycardia”. Besides, the “survival rate, rescue” value in [9] ([…] EtOH + 10 mM L-5-MTHF-Ca) is listed as “could rescue the survival rate”. Also, the “lower intestinal network blood vessels, rescue” value in [9] ([…] EtOH + 10 mM L-5-MTHF-Ca, 72 hpf) is listed as “failed to ameliorate the defect”. Further, the “body length, rescue” value in [9] (high concentration ([…]) of EtOH + 10 mM L-5-MTHF-Ca) is listed as “relieve a shortened body length”. For the same molecule, in data set [10] (10 mM L-5-MTHF-Ca in 20 mM NaHCO3, 2-72 hpf), the “survival rate of zebrafish” value was “did not affect the survival rate of zebrafish”. Further, the embryo coverage entry in data set [10] (10 mM L-5-MTHF-Ca, 8 hpf) was “covered completely”.
